Measurements reported in PubChem BioAssay AID2060500 (Molecular Pharmacology Branch, DTP, NCI, 2025).

Tested on: 596521-263-R-J1-PDC complex spheroids, viability % of control
Assay: Anticancer human tumor 596521-263-R-J1-PDC patient-derived soft tissue sarcoma cell line growth inhibition [GQUAD]
Details: for IC50: curve of first compound; for viability, T/C: stronger effect = lower value
From the text: DNA G-quadruplex Stabilizer Agents in Combinations in Complex Spheroids
A high-throughput screen of multi-cell type tumor spheroids was designed to identify active combinations of DNA G-quadruplex stabilizer agents and targeted small molecules. Complex spheroids include a stromal component modeled by human endothelial cells (HUVEC) and fibroblasts modeled by human mesenchymal stem cells (MSCs). The concentration ranges selected for each drug and investigational agent were based upon clinically achievable concentrations if the clinical Cmax of the agent was known.
Compounds. The drugs and investigational agents: pidnarulex (CX-5461; NSC782164), APTO-253 (NSC789042), BRACO-19 (NSC847499), peposertib (NSC802822), ceralasertib (NSC780249), elimusertib (NSC800525), camonsertib (NSC841442), AZD-1390 (NSC803789), olaparib (NSC753686), talazoparib (NSC767125), ART-558 (NSC835418), sotorasib (NSC818433), MRTX-1133 (NSC836407), SN-38 (NSC673596), topotecan (NSC609699), etoposide (NSC141540), doxorubicin (NSC123127), gemcitabine (NSC613327), 5-fluorouracil (NSC19893), paclitaxel (NSC125973), vemurafenib (NSC761431), panobinostat (NSC761190), R-306465 (JNJ-16241199; NSC773264), adavosertib (NSC754352), TP-3654 (NSC805149), carboplatin (NSC241240), KSQ-4279 (NSC840948), and staurosporine (NSC755774) were obtained from the National Cancer Institute (NCI) Developmental Therapeutics Program Chemical Repository (34). The FDA-approved anticancer drug set is available from the NCI Developmental Therapeutics Program. […] The stock solutions were prepared in dimethyl sulfoxide (DMSO, Sigma-Aldrich, St. Louis, MO, cat. D2650) at 800-fold the tested concentration and stored at -70 degrees C prior to their use. All drugs and investigational agents were tested over a range starting from a high concentration at or near the clinical Cmax and decreasing in half-log increments. If the clinical Cmax for an agent had not been determined, the highest concentration tested was 10 microM.
2.3 Cell Culture. All cells were maintained in an incubator at 37 degrees C and 5% CO2 with 95% humidity. The PDC lines were cultured according to standard operating procedures established by the NCI PDMR. All PDCs were thawed and cultured in Matrigel-coated flasks prepared with a working solution of 1X Ham's F-12 nutrient mix, without supplementation (Invitrogen, cat. 11765054), 100 U/mL penicillin-streptomycin (Invitrogen, cat. 15140122), and 2.5% Matrigel (Corning Inc., cat. 354248) for the first three passages. The 857933-349-R-J2-PDC line was cultured in 6C/Colon 1B media, which includes advanced DMEM/F-12 (Thermo Fisher Scientific, cat. 12634028), 10 mM HEPES (Thermo Fisher Scientific, cat. 15630080), 1X GlutaMAX supplement (Thermo Fisher Scientific, cat. 35050061), 0.1 mg/mL primocin (InvivoGen, cat. ant-pm-2), 10% defined fetal bovine serum, heat inactivated (HyClone Laboratories Inc., cat. SH30070.03HI), 50% L-WRN conditioned media (ATCC, cat. CRL-3276), 1.25 mM N-Acetyl-L-cysteine (Sigma-Aldrich, cat. A9165), 10 mM nicotinamide (Sigma-Aldrich, cat. N0636), 1X B-27 supplement (Thermo Fisher Scientific, cat. 17504044), 1X N-2 supplement (Thermo Fisher Scientific, cat. 17502048), 10 microM Y-27632 dihydrochloride (Tocris Bioscience, cat. 1254), and 50 ng/mL human EGF recombinant protein (Thermo Fisher Scientific, cat. PHG0311). The 485176-168-R4-J1-PDC line was cultured in Panc media, which includes all 6C/Colon 1B media components plus 100 ng/mL human FGF-10 (Thermo Fisher Scientific, cat. 100-26), 500 nM SB-431542 (Selleckchem, cat. S1067), and gastrin (Tocris, cat. 3006).
[…]

[1] = second compound 0.0316 µM, first compound 0.0316 µM
[2] = second compound 0.0316 µM, first compound 0.1 µM
[3] = second compound 0.0316 µM, first compound 0.316 µM
[4] = second compound 0.0316 µM, first compound 1 µM
[5] = second compound 0.0316 µM, first compound 3.16 µM
[6] = second compound 0.0316 µM, first compound 10 µM
[7] = second compound 0.1 µM, first compound 0.0316 µM
[8] = second compound 0.1 µM, first compound 0.1 µM
[9] = second compound 0.1 µM, first compound 0.316 µM
[10] = second compound 0.1 µM, first compound 1 µM
[11] = second compound 0.1 µM, first compound 3.16 µM
[12] = second compound 0.1 µM, first compound 10 µM
[13] = second compound 0.316 µM, first compound 0.0316 µM
[14] = second compound 0.316 µM, first compound 0.1 µM
[15] = second compound 0.316 µM, first compound 0.316 µM
[16] = second compound 0.316 µM, first compound 1 µM
[17] = second compound 0.316 µM, first compound 3.16 µM
[18] = second compound 0.316 µM, first compound 10 µM
[19] = second compound 1 µM, first compound 0.0316 µM
[20] = second compound 1 µM, first compound 0.1 µM
[21] = second compound 1 µM, first compound 0.316 µM
[22] = second compound 1 µM, first compound 1 µM
[23] = second compound 1 µM, first compound 3.16 µM
[24] = second compound 1 µM, first compound 10 µM
[25] = second compound 3.16 µM, first compound 0.0316 µM
[26] = second compound 3.16 µM, first compound 0.1 µM
[27] = second compound 3.16 µM, first compound 0.316 µM
[28] = second compound 3.16 µM, first compound 1 µM
[29] = second compound 3.16 µM, first compound 3.16 µM
[30] = second compound 3.16 µM, first compound 10 µM
[31] = second compound 10 µM, first compound 0.0316 µM
[32] = second compound 10 µM, first compound 0.1 µM
[33] = second compound 10 µM, first compound 0.316 µM
[34] = second compound 10 µM, first compound 1 µM
[35] = second compound 10 µM, first compound 3.16 µM
[36] = second compound 10 µM, first compound 10 µM
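Also: spheroids exposed to drugs for 7 days before viability reading.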

In the case of C=CC(=O)N1CCN(c2nc(=O)n(-c3c(C)ccnc3C(C)C)c3nc(-c4c(O)cccc4F)c(F)cc23)C(C)C1 (stereo unspecified) + CN(C)c1ccc(Nc2c3ccc(NC(=O)CCN4CCCC4)cc3nc3cc(NC(=O)CCN4CCCC4)ccc23)cc1, the IC50 (second compound 0.0316 µM) is reported as greater than 10 µM, the IC50 (second compound 0.1 µM) is reported as greater than 10 µM and the IC50 (second compound 0.316 µM) is reported as greater than 10 µM. It also gave an IC50 (second compound 1 µM) greater than 10 µM, an IC50 (second compound 3.16 µM) greater than 10 µM and an IC50 (second compound 10 µM) greater than 10 µM. For the same compound, the viability, T/C [1] was 114%, the viability, T/C [2] was 94.2% and the viability, T/C [3] was 112%. For the same compound, the viability, T/C [4] was 101%, the viability, T/C [5] was 98.2% and the viability, T/C [6] was 69.6%. It also gave a viability, T/C [7] of 110%, a viability, T/C [8] of 102% and a viability, T/C [9] of 96.9%. For the same compound, the viability, T/C [10] was 105%, the viability, T/C [11] was 103% and the viability, T/C [12] was 69.2%. It also gave a viability, T/C [13] of 110%, a viability, T/C [14] of 99.5% and a viability, T/C [15] of 98.8%. It also gave a viability, T/C [16] of 97.3%, a viability, T/C [17] of 96.9% and a viability, T/C [18] of 77.9%. The viability, T/C [19] was 96.2%, the viability, T/C [20] was 108% and the viability, T/C [21] was 103%. It also gave a viability, T/C [22] of 103%, a viability, T/C [23] of 93.7% and a viability, T/C [24] of 83.6%. It also gave a viability, T/C [25] of 86.6%, a viability, T/C [26] of 103% and a viability, T/C [27] of 94.2%. The viability, T/C [28] was 92.1%, the viability, T/C [29] was 111% and the viability, T/C [30] was 67.6%. It also gave a viability, T/C [31] of 71.3%, a viability, T/C [32] of 70.3% and a viability, T/C [33] of 77.2%. For the same compound, the viability, T/C [34] was 75.6%, the viability, T/C [35] was 76.3% and the viability, T/C [36] was 58.3%.

COc1cc(C2c3cc4c(cc3C(OC3OC5COC(C)OC5C(O)C3O)C3COC(=O)C23)OCO4)cc(OC)c1O (stereo unspecified) + CN(C)c1ccc(Nc2c3ccc(NC(=O)CCN4CCCC4)cc3nc3cc(NC(=O)CCN4CCCC4)ccc23)cc1 was tested, and the IC50 (second compound 0.0316 µM) was 3.59 µM, the IC50 (second compound 0.1 µM) was 8.19 µM and the IC50 (second compound 0.316 µM) was greater than 10 µM. For the same compound, the IC50 (second compound 1 µM) was 2.75 µM, the IC50 (second compound 3.16 µM) was 3.12 µM and the IC50 (second compound 10 µM) was 4.29 µM. For the same compound, the viability, T/C [1] was 101%, the viability, T/C [2] was 96.2% and the viability, T/C [3] was 84.5%. The viability, T/C [4] was 59.8%, the viability, T/C [5] was 56.8% and the viability, T/C [6] was 40.3%. The viability, T/C [7] was 111%, the viability, T/C [8] was 96.6% and the viability, T/C [9] was 85%. The viability, T/C [10] was 70.6%, the viability, T/C [11] was 57.8% and the viability, T/C [12] was 48.5%. For the same compound, the viability, T/C [13] was 96.4%, the viability, T/C [14] was 107% and the viability, T/C [15] was 82.7%. It also gave a viability, T/C [16] of 67.2%, a viability, T/C [17] of 56.8% and a viability, T/C [18] of 47.8%. For the same compound, the viability, T/C [19] was 95.9%, the viability, T/C [20] was 92.8% and the viability, T/C [21] was 94.6%. It also gave a viability, T/C [22] of 72.3%, a viability, T/C [23] of 47% and a viability, T/C [24] of 46.6%. For the same compound, the viability, T/C [25] was 95.9%, the viability, T/C [26] was 94.9% and the viability, T/C [27] was 85%. It also gave a viability, T/C [28] of 63.9%, a viability, T/C [29] of 49.7% and a viability, T/C [30] of 46.6%. It also gave a viability, T/C [31] of 68%, a viability, T/C [32] of 63.6% and a viability, T/C [33] of 67.1%. It also gave a viability, T/C [34] of 55.5%, a viability, T/C [35] of 54% and a viability, T/C [36] of 42.9%.

Cc1cccc(N(C)C(=O)C2C(O)CCN2c2nc(C)cc(C(F)(F)F)c2C#N)c1 (stereo unspecified) + CN(C)c1ccc(Nc2c3ccc(NC(=O)CCN4CCCC4)cc3nc3cc(NC(=O)CCN4CCCC4)ccc23)cc1 was tested, and the IC50 (second compound 0.0316 µM) was greater than 10 µM, the IC50 (second compound 0.1 µM) was greater than 10 µM and the IC50 (second compound 0.316 µM) was greater than 10 µM. For the same compound, the IC50 (second compound 1 µM) was greater than 10 µM, the IC50 (second compound 3.16 µM) was greater than 10 µM and the IC50 (second compound 10 µM) was greater than 10 µM. The viability, T/C [1] was 108%, the viability, T/C [2] was 99% and the viability, T/C [3] was 89.8%. For the same compound, the viability, T/C [4] was 94.1%, the viability, T/C [5] was 101% and the viability, T/C [6] was 101%. For the same compound, the viability, T/C [7] was 118%, the viability, T/C [8] was 95.7% and the viability, T/C [9] was 91.6%. The viability, T/C [10] was 109%, the viability, T/C [11] was 95.5% and the viability, T/C [12] was 109%. For the same compound, the viability, T/C [13] was 102%, the viability, T/C [14] was 102% and the viability, T/C [15] was 100%. For the same compound, the viability, T/C [16] was 115%, the viability, T/C [17] was 113% and the viability, T/C [18] was 102%. It also gave a viability, T/C [19] of 90.6%, a viability, T/C [20] of 103% and a viability, T/C [21] of 105%. For the same compound, the viability, T/C [22] was 105%, the viability, T/C [23] was 97.6% and the viability, T/C [24] was 88%. The viability, T/C [25] was 88%, the viability, T/C [26] was 98.1% and the viability, T/C [27] was 95.8%. For the same compound, the viability, T/C [28] was 91%, the viability, T/C [29] was 85.9% and the viability, T/C [30] was 87.7%. The viability, T/C [31] was 62.7%, the viability, T/C [32] was 63.6% and the viability, T/C [33] was 72.9%. For the same compound, the viability, T/C [34] was 63.7%, the viability, T/C [35] was 58.8% and the viability, T/C [36] was 47.8%.
